The values that follow come from patent US20060030608A1, “Anti aromatase compounds pharmaceutical compositions and uses thereof” (Boehringer Ingelheim Pharmaceuticals, Inc., priority 2004, published 2006).

The target of the assay is T1, recombinant human aromatase (CYP19) (Homo sapiens, UniProt P11511).
T1 construct: purchased GENTEST 456260; host or cells: baculovirus/insect cells
T1 sequence (P11511 1-503): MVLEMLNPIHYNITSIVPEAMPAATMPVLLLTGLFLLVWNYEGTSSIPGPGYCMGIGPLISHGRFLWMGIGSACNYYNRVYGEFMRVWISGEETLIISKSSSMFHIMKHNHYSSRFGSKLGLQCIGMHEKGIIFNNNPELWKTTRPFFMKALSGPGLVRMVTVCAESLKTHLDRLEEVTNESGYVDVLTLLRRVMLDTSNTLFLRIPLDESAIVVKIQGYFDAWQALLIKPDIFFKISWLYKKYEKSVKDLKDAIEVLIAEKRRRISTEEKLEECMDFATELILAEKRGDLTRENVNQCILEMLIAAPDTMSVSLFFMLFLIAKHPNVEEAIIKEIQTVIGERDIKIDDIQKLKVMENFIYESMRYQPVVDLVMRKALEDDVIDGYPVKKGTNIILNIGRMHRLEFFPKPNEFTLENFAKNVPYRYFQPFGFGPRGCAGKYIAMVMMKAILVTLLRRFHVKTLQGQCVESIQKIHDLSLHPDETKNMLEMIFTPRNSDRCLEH
Put plainly: aromatase (CYP19) inhibition assay, fluorometric substrate dibenzylfluorescein (DBF). The assay is classed as biochemical. As to conditions: recombinant human aromatase (baculovirus/insect cell expressed), test compounds 2×10^−5 to 10^−9 M, 37° C. for 30 minutes. The procedure:
Compounds of the invention were evaluated for inhibiting aromatase enzyme using the following aromatase (CYP19) inhibition assay which detects aromatase inhibitors utilizing recombinant human aromatase (baculovirus/insect cell expressed) and the fluorometric substrate dibenzylfluorescein (DBF). Aromatase will metabolize DBF to fluorescein which will give the fluorescent signal. The assay is conducted in 96-well black, Falcon plate (BD Biosciences, Cat. No. 353241) in the total volume of 100 μL per well. 40 μL of the Cofactor/Dilution buffer (1) is added to the plate followed by 10 μL of serially diluted test compounds in duplicates for final concentration of 2×10^−5 to 10^−9 M, or 10 μL of phosphate buffer for positive and background control wells. After 10 minutes of preincubation at 37° C., the reaction is initiated by adding 50 μL of prewarmed Enzyme/Substrate Mix (2) to the test compound wells, and positive control wells (maximum activity of CYP19, which represents 100%). The plate is incubated at 37° C. for 30 minutes. To stop the reaction, 37.5 μL of 2 N NaOH is added to all wells. For background controls, 50 μL of Enzyme/Substrate Mix (2) are added into background control wells. The plate is left at 37° C. incubator for 2 hours to develop adequate signal to background ratio. Fluorescence per well is measured in the fluorescent plate reader. The metabolite concentration is measured using excitation wavelength of 485 nm and emission wavelength of 538 nm. Inhibition of aromatase by test compounds is expressed in percentage relative to positive controls. IC50 values for the test compounds are derived from non-liner curve fitting. • (1) Cofactor/Dilution buffer: 50 mM phosphate buffer, pH=7.4; 1× NADPH regenerating system A (20× stock, GENTEST, Cat. No. 451220); 1× NAPDH regenerating system B (100× stock, GENTEST, Cat. No. 451200) and 0.2 mg/mL control protein (Insect Cell Control Supersomes, GENTEST, Cat. No. 456200) • (2) Enzyme/Substrate Mix: 50 mM phosphate buffer, pH=7.4, 0.02 nmole/mL human aromatase protein (Human CYP19+P450 Reductase Supersomes, GENTEST, Cat. No. 456260); 0.4 μM dibenzylfluorescein (DBF, GENTEST, Cat. No. 451750, prepared at 2 mM concentration in acetonitrile); 0.5 mg/mL control protein (Insect Cell Control Supersomes, GENTEST, Cat. No. 456200).

Consider `COc1ccc(F)cc1C(C)(C)CC(O)(Cc1cc2ccncc2[nH]1)C(C)(C)C` (stereo not shown) [5-(5-Fluoro-2-methoxyphenyl)-2,2,5-trimethyl-3-(1H-pyrrolo[2,3-c]pyridin-2-ylmethyl)hexan-3-ol], for which the aromatase inhibition entry was “showed aromatase inhibition”. `CC(C)(CC(O)(Cc1cc2cnccc2[nH]1)C(F)(F)F)c1cccc2c1OCC2` (stereo not shown) [4-(2,3-Dihydrobenzofuran-7-yl)-1,1,1-trifluoro-4-methyl-2-(1H-pyrrolo[3,2-c]pyridin-2-ylmethyl)pentan-2-ol]: the aromatase inhibition result is given as “showed aromatase inhibition”. In the case of `CC(C)(CC(O)(Cc1cc2cnccc2[nH]1)C1CC1)c1cc(Cl)cc2c1OCC2` (stereo not shown) [4-(5-Chloro-2,3-dihydrobenzofuran-7-yl)-2-cyclopropyl-4-methyl-1-(1H-pyrrolo[3,2-c]pyridin-2-yl)pentan-2-ol] it was “showed aromatase inhibition”; in that of `COc1ccc(F)cc1C(C)(C)CC(O)(Cc1cc2ccncc2[nH]1)C(C)C` (stereo not shown) [5-(5-Fluoro-2-methoxyphenyl)-2,5-dimethyl-3-(1H-pyrrolo[2,3-c]pyridin-2-ylmethyl)hexan-3-ol], “showed aromatase inhibition”.
